According to PubChem BioAssay (NCI):
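Interpolation was linear, between the two tested concentrations surrounding the appropriate level; five concentrations were tested over 48 hours in 96-well plates. GI50 = concentration required for 50% inhibition of growth. TGI: total growth inhibition.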

Tests used:
Assay in all cases: NCI tumour cell line growth inhibition, 48 h
DMS 114 small cell lung = test system: DMS 114 small cell lung
DMS 273 small cell lung = test system: DMS 273 small cell lung
KM20L2 colon = test system: KM20L2 colon
LXFL 529 NSCLC = test system: LXFL 529 NSCLC
RXF-631 renal = test system: RXF-631 renal
SNB-78 CNS = test system: SNB-78 CNS
XF 498 CNS = test system: XF 498 CNS
HOP-18 NSCLC = test system: HOP-18 NSCLC
MDA-N = test system: MDA-N
P388/ADR leukemia = test system: P388/ADR leukemia
SN12K1 renal = test system: SN12K1 renal

| SMILES | TGI (DMS 114 small cell lung) [µM] | TGI (DMS 273 small cell lung) [µM] | TGI (KM20L2 colon) [µM] | TGI (LXFL 529 NSCLC) [µM] | TGI (RXF-631 renal) [µM] | TGI (SNB-78 CNS) [µM] | TGI (XF 498 CNS) [µM] | TGI (HOP-18 NSCLC) [µM] | also measured |
| --- | --- | --- | --- | --- | --- | --- | --- | --- | --- |
| COc1nc2c(c(O)c(C)c(=O)n2OC2OC(COC(C)=O)C(OC(C)=O)C(OC(C)=O)C2OC(C)=O)c(=O)n1C (centres undefined) | > 100 | > 100 | > 100 | > 100 | > 100 | > 100 | > 100 | – | – |
| CC[P+]1(CC)CCCC1 | > 100 | > 100 | > 100 | > 100 | – | > 100 | > 100 | > 100 | – |
| CC1=C(C(=O)CC(=O)C(=O)NC2C3CC4CC(C3)CC2C4)Sc2ccccc2N1 (centres undefined) | > 31.6 | > 100 | > 100 | > 100 | – | > 100 | > 100 | > 100 | – |
| Cc1cc(NC(=O)NC(=O)c2ccccc2N(C)C)ccc1Oc1ncc(Br)cn1 | – | – | 0.796 | > 100 | – | > 100 | – | > 100 | GI50 (DMS 114 small cell lung): 0.478 µM; GI50 (LXFL 529 NSCLC): 0.658 µM; TGI (MDA-N): 0.281 µM; GI50 (XF 498 CNS): 0.894 µM |
| C[C@@]12CCCC(=O)N1[C@@H](CO)C(c1ccccc1)O2 (some centres undefined) | > 100 | > 100 | > 100 | – | – | > 100 | > 100 | > 100 | – |
| Cc1nnc(N=Nc2c(O)[nH]c3ccccc23)n1N | > 100 | > 100 | > 100 | > 100 | > 100 | > 100 | > 100 | > 100 | – |
| NC(=O)c1c[se]c(C2OC(COP(=O)(O)CP(=O)(O)OCC3OC(n4cnc5c(N)ncnc54)C(O)C3O)C(O)C2O)n1 (centres undefined) | > 100 | > 100 | > 100 | > 100 | – | > 100 | > 100 | > 100 | – |
| COC(=O)c1cc2c3c(ccc2[nH]1)N(C(=O)c1cc2c4c(ccc2[nH]1)N(C(=O)c1cc2c5c(ccc2[nH]1)N(C(N)=O)CC5)CC4)CC3 | 57.3 | > 100 | > 100 | – | – | > 100 | – | > 100 | – |
| COc1ccc(C2NCCc3c2[nH]c2ccccc32)cc1 (centres undefined) | – | – | > 100 | > 100 | > 100 | – | > 100 | > 100 | – |
| O=C(O)Cn1ccnc1[N+](=O)[O-] | – | – | – | – | – | – | – | – | TGI (MDA-N): > 100 µM |
| O=C1C(c2ccccc2)=C(c2ccccc2)[C@H](c2ccccc2)[C@]1(Cc1nnn(-c2ccc([N+](=O)[O-])cc2)c1N1CCOCC1)c1ccccc1 | > 37.5 | > 37.5 | > 37.5 | > 37.5 | > 37.5 | > 37.5 | 26.5 | > 37.5 | – |
| COc1ccc(CC2=NCCc3cc(OC)c(OC)cc32)cc1Br | 48.3 | 33.7 | 99.3 | > 100 | – | > 100 | 53.1 | > 100 | – |
| COc1cc(O)c(C(C)=O)c(O)c1 | – | – | – | – | – | – | – | – | TGI (MDA-N): > 100 µM |
| CC(=O)[CH-]C(=O)c1ccccc1.CC(=O)[CH-]C(=O)c1ccccc1.[CH2-]CCC.[CH2-]CCC.[Sn+4] | – | – | 3.94 | 0.627 | – | – | – | – | GI50 (KM20L2 colon): 1.99 µM; GI50 (LXFL 529 NSCLC): 0.198 µM |
| COC(=O)C1(F)C(=O)NC(=O)NC1OC (centres undefined) | > 100 | > 100 | > 100 | – | – | > 100 | > 100 | > 100 | – |
| CC[C@@]1(O)C(=O)OCc2c1cc1n(c2=O)Cc2cc3c(N)cccc3nc2-1 | 0.121 | 0.111 | 4.02 | 2.98 | 1.69 | > 100 | 1.05 | 7.64 | GI50 (MDA-N): 0.333 µM; TGI (MDA-N): > 33.8 µM; TGI (P388/ADR leukemia): 0.375 µM; TGI (SN12K1 renal): 1.34 µM |
| CCCCCCCCCC(=O)Oc1cccc2onc(C)c12 | > 100 | > 100 | > 100 | > 100 | > 100 | > 100 | – | > 100 | – |

| SMILES | TGI (DMS 114 small cell lung) [µM] | TGI (DMS 273 small cell lung) [µM] | TGI (KM20L2 colon) [µM] | TGI (LXFL 529 NSCLC) [µM] | TGI (RXF-631 renal) [µM] | TGI (SNB-78 CNS) [µM] | TGI (XF 498 CNS) [µM] | TGI (HOP-18 NSCLC) [µM] | also measured |
| --- | --- | --- | --- | --- | --- | --- | --- | --- | --- |
| O=[N+]([O-])C1C2C=CC(C2)[C@H]1c1ccc(Cl)cc1Cl (some centres undefined) | – | > 100 | – | > 100 | – | > 100 | > 100 | – | – |
| NS(=O)(=O)c1ccc(NC(=O)c2cccn3c(=O)c4ccccc4nc23)cc1 | > 100 | – | > 100 | > 100 | > 100 | > 100 | > 100 | > 100 | – |
| COc1cc2cccc(N=Cc3c(Br)ccc(OC)c3OC(C)C)c2cc1OC | 63.5 | – | > 100 | > 100 | – | > 100 | > 100 | – | – |
| CC(=O)OCCC(O[Si](c1ccccc1)(c1ccccc1)C(C)(C)C)C(C)(C)O (centres undefined) | 53.6 | > 100 | > 100 | > 100 | > 100 | > 100 | 96.8 | 91.4 | – |
| NC(=O)C(=O)n1ncc(Cl)c(Cl)c1=O | 36.6 | > 100 | > 90.8 | 29 | – | 49.8 | 31.6 | 35.1 | TGI (MDA-N): > 100 µM |
| CC(C)(CO)N=Cc1ccccc1[O-].CC(C)(CO)N=Cc1ccccc1[O-].[Co+2] | > 100 | > 100 | > 100 | > 100 | – | > 100 | > 100 | > 100 | GI50 (DMS 114 small cell lung): 18.7 µM; GI50 (DMS 273 small cell lung): > 85.9 µM; GI50 (HOP-18 NSCLC): 29.4 µM; GI50 (KM20L2 colon): 61.9 µM; GI50 (LXFL 529 NSCLC): 19.2 µM; GI50 (SNB-78 CNS): > 100 µM; GI50 (XF 498 CNS): > 100 µM |
| C=CC1=CC(C)C[C@]1(O)C(=O)OC (some centres undefined) | – | – | > 100 | – | – | > 100 | – | > 100 | GI50 (DMS 114 small cell lung): > 100 µM; GI50 (DMS 273 small cell lung): > 100 µM; GI50 (LXFL 529 NSCLC): > 100 µM; GI50 (RXF-631 renal): > 100 µM; GI50 (XF 498 CNS): > 100 µM |
| O=C(O)C1C(C(=O)O)C2(Cl)C(Cl)=C(Cl)C1(Cl)C2(Cl)Cl.[Cd] (centres undefined) | – | – | – | – | – | – | – | – | GI50 (MDA-N): 8.5 µM; TGI (MDA-N): 22.6 µM |
| Cc1ccccc1NC(=O)C(=O)CC(=O)c1ccc([N+](=O)[O-])cc1 | > 100 | > 100 | > 100 | > 100 | > 100 | > 100 | > 100 | > 100 | – |
| C/C(=N/NC(=O)CC(=O)N(C(=O)c1ccccc1Cl)c1ccc(C)cc1)c1cc2ccccc2oc1=O | > 100 | > 100 | > 100 | > 100 | > 100 | > 100 | > 100 | > 100 | – |
| CC(C)(C)[Si](C)(C)OCC1OC(n2cnc3c(N)ncnc32)C(O)C1O (centres undefined) | – | – | – | – | – | – | – | – | TGI (MDA-N): > 100 µM |
| O=C(O)[C@@H]1CCCC[C@@H]1C(=O)N(C1CCCCC1)C1CCCCC1 | > 100 | > 100 | > 100 | > 100 | > 100 | > 100 | – | – | – |
| C/C(=N/O)c1ccc2c(c1)C(=NO)c1cc(/C(C)=N/O)ccc1-2 | 53.7 | > 100 | 32.3 | 29 | – | 47.9 | 36.2 | 27.4 | – |
| CC(C)(C)c1cc(CCC(=O)Nc2ccc(Cl)cc2Cl)nc(N)n1 | > 100 | – | > 100 | > 100 | > 100 | > 100 | – | > 100 | – |
| CCCCCCCCCCCCCCCCS(=O)(=O)c1ccc(NN)cc1 | – | – | – | – | – | – | – | – | TGI (MDA-N): > 10 µM |
| COc1ccc2[nH]c3c(=O)[nH]ncc3c2c1 | > 100 | > 100 | – | > 100 | – | > 100 | – | > 100 | – |
| CCOC(=O)C[C@@]12CCCNC1(C)CCc1ccccc12 (some centres undefined) | > 100 | > 100 | > 100 | – | – | – | > 100 | > 100 | – |
